# Results: PubChem BioAssay (NCI)
#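 Growth conditions: 96-well plates. Treatment: test compound, 48 hours, 5 concentrations. Analysis: linear interpolation between bracketing concentrations; unreached endpoints set to highest concentration. TGI: total growth inhibition.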
# Assays:
# Test in all cases: growth of human tumour cells (NCI), 48 h
# [1] = system: 786-0 renal
# [2] = system: A498 renal
# [3] = system: A549 NSCLC
# [4] = system: ACHN renal
# [5] = system: CAKI-1 renal
# [6] = system: CCRF-CEM leukemia
# [7] = system: COLO 205 colon
# [8] = system: DLD-1 colon
# [9] = system: DMS 114 small cell lung
# [10] = system: DMS 273 small cell lung
# [11] = system: EKVX NSCLC
# [12] = system: HCC-2998 colon
# [13] = system: HCT-116 colon
# [14] = system: HCT-15 colon
# [15] = system: HL-60(TB) leukemia
# [16] = system: HOP-62 NSCLC
# [17] = system: HT29 colon
# [18] = system: IGROV1 ovarian
# [19] = system: K-562 leukemia
# [20] = system: KM12 colon
# [21] = system: KM20L2 colon
# [22] = system: LOX IMVI melanoma
# [23] = system: LXFL 529 NSCLC
# [24] = system: M14 melanoma
# [25] = system: M19-MEL melanoma
# [26] = system: MALME-3M melanoma
# [27] = system: MOLT-4 leukemia
# [28] = system: NCI-H23 lung
# [29] = system: NCI-H460 lung
# [30] = system: OVCAR-4 ovarian
# [31] = system: OVCAR-5 ovarian
# [32] = system: RXF 393 renal
# [33] = system: RXF-631 renal
# [34] = system: SF-268 CNS
# [35] = system: SF-295 CNS
# [36] = system: SF-539 CNS
# [37] = system: SK-MEL-2 melanoma
# [38] = system: SK-MEL-28 melanoma
# [39] = system: SK-MEL-5 melanoma
# [40] = system: SK-OV-3 ovarian
# [41] = system: SN12C renal
# [42] = system: SNB-19 CNS
# [43] = system: SNB-78 CNS
# [44] = system: SW-620 colon
# [45] = system: TK-10 renal
# [46] = system: U251 CNS
# [47] = system: UACC-257 melanoma
# [48] = system: UACC-62 melanoma
# [49] = system: UO-31 renal
# [50] = system: BT-549 breast
# [51] = system: DU-145 prostate
# [52] = system: HOP-18 NSCLC
# [53] = system: HOP-92 NSCLC
# [54] = system: HS 578T breast
# [55] = system: MCF7 breast
# [56] = system: MDA-MB-231 breast
# [57] = system: MDA-MB-435
# [58] = system: MDA-N
# [59] = system: NCI-H226 lung
# [60] = system: NCI-H522 lung
# [61] = system: NCI/ADR-RES ovarian
# [62] = system: OVCAR-3 ovarian
# [63] = system: OVCAR-8 ovarian
# [64] = system: PC-3 prostate
# [65] = system: RPMI-8226 leukemia
# [66] = system: SR leukemia
# [67] = system: T-47D breast
# [68] = system: XF 498 CNS
# [69] = system: SNB-75 CNS
smiles,measurement,setting,value
N#CCC(=O)N1CCCOCCC1,TGI,[1],> 100 µM
same,TGI,[2],> 100 µM
same,TGI,[3],> 100 µM
same,TGI,[4],> 100 µM
same,TGI,[5],> 100 µM
same,TGI,[6],> 100 µM
same,TGI,[7],42.2 µM
same,TGI,[8],> 100 µM
same,TGI,[9],> 100 µM
same,TGI,[10],> 100 µM
same,TGI,[11],> 100 µM
same,TGI,[12],> 100 µM
same,TGI,[13],> 100 µM
same,TGI,[14],37.7 µM
same,TGI,[15],> 100 µM
same,TGI,[16],> 100 µM
same,TGI,[17],> 100 µM
same,TGI,[18],> 100 µM
same,TGI,[19],> 100 µM
same,TGI,[20],> 100 µM
same,TGI,[21],> 100 µM
same,TGI,[22],> 100 µM
same,TGI,[23],> 100 µM
same,TGI,[24],> 100 µM
same,TGI,[25],> 100 µM
same,TGI,[26],> 100 µM
same,TGI,[27],7.36 µM
same,TGI,[28],> 100 µM
same,TGI,[29],> 100 µM
same,TGI,[30],> 100 µM
same,TGI,[31],> 100 µM
same,TGI,[32],> 100 µM
same,TGI,[33],> 100 µM
same,TGI,[34],> 100 µM
same,TGI,[35],> 100 µM
same,TGI,[36],> 100 µM
same,TGI,[37],> 100 µM
same,TGI,[38],> 100 µM
same,TGI,[39],> 100 µM
same,TGI,[40],> 100 µM
same,TGI,[41],> 100 µM
same,TGI,[42],> 100 µM
same,TGI,[43],> 100 µM
same,TGI,[44],24.3 µM
same,TGI,[45],> 100 µM
same,TGI,[46],> 100 µM
same,TGI,[47],> 100 µM
same,TGI,[48],> 100 µM
same,TGI,[49],> 100 µM
O=C(CSc1ncnc2nc[nH]c12)c1ccccc1,TGI,[1],> 100 µM
same,TGI,[2],> 100 µM
same,TGI,[3],> 100 µM
same,TGI,[4],> 100 µM
same,TGI,[50],> 100 µM
same,TGI,[5],> 100 µM
same,TGI,[6],> 100 µM
same,TGI,[7],> 100 µM
same,TGI,[8],> 100 µM
same,TGI,[9],> 100 µM
same,TGI,[10],> 100 µM
same,TGI,[51],> 100 µM
same,TGI,[11],> 100 µM
same,TGI,[13],> 100 µM
same,TGI,[14],> 100 µM
same,TGI,[15],> 100 µM
same,TGI,[52],> 100 µM
same,TGI,[16],> 100 µM
same,TGI,[53],> 100 µM
same,TGI,[54],> 100 µM
same,TGI,[17],> 100 µM
same,TGI,[18],> 100 µM
same,TGI,[19],> 100 µM
same,TGI,[20],> 57.1 µM
same,TGI,[21],> 100 µM
same,TGI,[22],> 100 µM
same,TGI,[23],> 100 µM
same,TGI,[24],> 100 µM
same,TGI,[25],> 100 µM
same,TGI,[26],> 100 µM
same,TGI,[55],> 100 µM
same,TGI,[56],> 100 µM
same,TGI,[57],> 100 µM
same,TGI,[58],> 100 µM
same,TGI,[27],> 100 µM
same,TGI,[59],> 100 µM
same,TGI,[28],> 100 µM
same,TGI,[29],> 100 µM
same,TGI,[60],> 100 µM
same,TGI,[61],> 100 µM
same,TGI,[62],> 100 µM
same,TGI,[30],> 100 µM
same,TGI,[31],> 100 µM
same,TGI,[63],> 100 µM
same,TGI,[64],> 100 µM
same,TGI,[65],> 100 µM
same,TGI,[32],> 100 µM
same,TGI,[34],> 100 µM
same,TGI,[35],> 100 µM
same,TGI,[36],> 100 µM
same,TGI,[37],> 57.8 µM
same,TGI,[38],> 100 µM
same,TGI,[39],> 100 µM
same,TGI,[40],> 100 µM
same,TGI,[41],> 100 µM
same,TGI,[42],> 100 µM
same,TGI,[43],> 100 µM
same,TGI,[66],> 100 µM
same,TGI,[44],> 100 µM
same,TGI,[67],> 100 µM
same,TGI,[45],> 100 µM
same,TGI,[46],> 100 µM
same,TGI,[47],> 100 µM
same,TGI,[48],> 100 µM
same,TGI,[49],> 100 µM
same,TGI,[68],> 100 µM
O=C1C(Cl)C(c2cc(Br)ccc2O)N1n1cnc2ccccc2c1=O (stereo not drawn),TGI,[1],> 100 µM
same,TGI,[2],> 100 µM
same,TGI,[3],> 100 µM
same,TGI,[4],> 95.2 µM
same,TGI,[5],> 94.3 µM
same,TGI,[6],> 100 µM
same,TGI,[7],> 100 µM
same,TGI,[8],> 100 µM
same,TGI,[9],28.2 µM
same,TGI,[10],> 73.2 µM
same,TGI,[11],27.8 µM
same,TGI,[12],65.9 µM
same,TGI,[13],33.3 µM
same,TGI,[14],> 100 µM
same,TGI,[15],16.4 µM
same,TGI,[52],45.5 µM
same,TGI,[16],> 100 µM
same,TGI,[53],71.1 µM
same,TGI,[17],> 100 µM
same,TGI,[18],> 92.7 µM
same,TGI,[19],> 47.3 µM
same,TGI,[20],> 100 µM
same,TGI,[21],> 100 µM
same,TGI,[22],> 100 µM
same,TGI,[23],> 100 µM
same,TGI,[24],27.6 µM
same,TGI,[25],35.1 µM
same,TGI,[26],70.1 µM
same,TGI,[27],29 µM
same,TGI,[59],39.1 µM
same,TGI,[28],> 71 µM
same,TGI,[29],60.5 µM
same,TGI,[60],> 51.5 µM
same,TGI,[62],> 82.1 µM
same,TGI,[30],> 82.7 µM
same,TGI,[31],> 100 µM
same,TGI,[63],> 100 µM
same,TGI,[65],43.7 µM
same,TGI,[32],> 100 µM
same,TGI,[34],> 55 µM
same,TGI,[35],> 100 µM
same,TGI,[36],> 100 µM
same,TGI,[37],> 100 µM
same,TGI,[38],> 78.2 µM
same,TGI,[39],> 86.8 µM
same,TGI,[40],> 100 µM
same,TGI,[41],> 100 µM
same,TGI,[42],> 62.9 µM
same,TGI,[69],71.4 µM
same,TGI,[43],> 93.9 µM
same,TGI,[66],> 36.9 µM
same,TGI,[44],> 100 µM
same,TGI,[45],> 100 µM
same,TGI,[46],> 100 µM
same,TGI,[47],49.1 µM
same,TGI,[48],> 68 µM
same,TGI,[49],> 56.3 µM
same,TGI,[68],> 100 µM
O=C1c2c(c(-c3ccccc3)c(-c3ccccc3)c(-c3ccccc3)c2-c2ccccc2)C(=O)N1c1cccc(Br)c1,TGI,[1],> 100 µM
same,TGI,[2],> 100 µM
same,TGI,[3],> 100 µM
same,TGI,[5],> 100 µM
same,TGI,[6],> 100 µM
same,TGI,[7],> 100 µM
same,TGI,[8],> 100 µM
same,TGI,[9],> 100 µM
same,TGI,[10],> 100 µM
same,TGI,[11],> 100 µM
same,TGI,[12],> 100 µM
same,TGI,[13],> 100 µM
same,TGI,[14],> 100 µM
same,TGI,[15],> 100 µM
same,TGI,[52],> 100 µM
same,TGI,[16],> 100 µM
same,TGI,[53],> 100 µM
same,TGI,[18],> 100 µM
same,TGI,[19],> 100 µM
same,TGI,[20],> 100 µM
same,TGI,[21],> 100 µM
same,TGI,[22],> 100 µM
same,TGI,[23],> 100 µM
same,TGI,[24],> 100 µM
same,TGI,[25],> 100 µM
same,TGI,[26],> 100 µM
same,TGI,[27],> 100 µM
same,TGI,[59],> 100 µM
same,TGI,[28],> 100 µM
same,TGI,[29],> 100 µM
same,TGI,[60],> 100 µM
same,TGI,[62],> 100 µM
same,TGI,[30],> 100 µM
same,TGI,[31],> 100 µM
same,TGI,[63],> 100 µM
same,TGI,[65],> 100 µM
same,TGI,[32],> 100 µM
same,TGI,[34],> 100 µM
same,TGI,[35],> 100 µM
same,TGI,[36],> 100 µM
same,TGI,[37],> 100 µM
same,TGI,[39],> 100 µM
same,TGI,[40],> 100 µM
same,TGI,[41],> 100 µM
same,TGI,[42],> 100 µM
same,TGI,[69],> 100 µM
same,TGI,[43],> 100 µM
same,TGI,[66],> 100 µM
same,TGI,[44],> 100 µM
same,TGI,[45],> 100 µM
same,TGI,[46],> 100 µM
same,TGI,[47],> 100 µM
same,TGI,[48],> 100 µM
same,TGI,[49],> 100 µM
same,TGI,[68],> 100 µM
